According to ChEMBL document CHEMBL5236603, “Discovery of mobocertinib, a potent, oral inhibitor of EGFR exon 20 insertion mutations in non-small cell lung cancer” (Bioorg Med Chem Lett, 2023):

Legend:
[1] = biological target: Epidermal growth factor receptor (Homo sapiens, UniProt P00533); assay: Inhibition of […]-induced wild type EGFR phosphorylation in human A-431 cells pretreated for 2 hrs followed by EGF stimulation by immune assay; assay type: cell-based
[2] = biological target: Epidermal growth factor receptor (Homo sapiens, UniProt P04626+P00533+Q15303+P21860, L858R); assay: Inhibition of mouse EGFR L858R mutant stably expressed in mouse BaF3 cells assessed as cell viability incubated for 3 days by Cell Titer-Glo assay; assay type: cell-based
BaF3 = assay: In vivo antitumor activity against mouse BaF3 cells expressing EGFR exon 20 insertion (ex20ins) ASV implanted in SCID mouse assessed as tumor regression at 100 mg/kg, po administered for 7 consecutive days; assay type: functional; details: time 7 day

Chain of Epidermal growth factor receptor (Homo sapiens, UniProt P00533) (P00533 whole entry): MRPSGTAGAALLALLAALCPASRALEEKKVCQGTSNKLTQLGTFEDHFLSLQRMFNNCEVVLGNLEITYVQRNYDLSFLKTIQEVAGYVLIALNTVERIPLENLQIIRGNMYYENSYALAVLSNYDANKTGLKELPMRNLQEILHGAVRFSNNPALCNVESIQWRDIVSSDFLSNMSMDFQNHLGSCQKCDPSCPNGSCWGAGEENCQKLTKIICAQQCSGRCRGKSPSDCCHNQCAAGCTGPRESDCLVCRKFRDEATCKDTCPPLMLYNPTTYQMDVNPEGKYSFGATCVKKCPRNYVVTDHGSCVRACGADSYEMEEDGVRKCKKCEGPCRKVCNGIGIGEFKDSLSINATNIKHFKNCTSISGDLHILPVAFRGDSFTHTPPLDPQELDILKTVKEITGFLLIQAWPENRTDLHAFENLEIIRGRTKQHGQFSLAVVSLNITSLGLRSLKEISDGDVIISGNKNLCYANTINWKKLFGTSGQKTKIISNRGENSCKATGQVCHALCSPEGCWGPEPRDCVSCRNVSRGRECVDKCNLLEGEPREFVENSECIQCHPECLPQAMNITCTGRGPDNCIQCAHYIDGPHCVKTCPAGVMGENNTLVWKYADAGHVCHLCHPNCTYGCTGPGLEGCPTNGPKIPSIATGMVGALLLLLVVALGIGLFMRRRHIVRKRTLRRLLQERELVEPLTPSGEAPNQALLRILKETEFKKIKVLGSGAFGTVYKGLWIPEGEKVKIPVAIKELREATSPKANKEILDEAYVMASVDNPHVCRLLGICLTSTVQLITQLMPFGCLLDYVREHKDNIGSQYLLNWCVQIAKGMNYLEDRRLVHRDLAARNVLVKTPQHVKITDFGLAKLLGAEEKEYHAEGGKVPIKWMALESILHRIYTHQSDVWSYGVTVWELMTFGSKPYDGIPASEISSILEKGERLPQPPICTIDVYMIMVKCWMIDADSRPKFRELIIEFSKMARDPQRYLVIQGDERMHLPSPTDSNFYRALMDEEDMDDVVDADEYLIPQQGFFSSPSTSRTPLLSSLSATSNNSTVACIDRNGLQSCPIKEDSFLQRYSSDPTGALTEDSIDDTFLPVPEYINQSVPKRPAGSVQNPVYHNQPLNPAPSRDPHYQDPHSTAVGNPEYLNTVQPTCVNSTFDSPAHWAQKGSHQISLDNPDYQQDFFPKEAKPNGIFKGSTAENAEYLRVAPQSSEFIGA

IC50 [1]: 34.5 nM
SMILES: C=CC(=O)Nc1cc(Nc2ncc(C(=O)OC(C)C)c(-c3cn(C)c4ccccc34)n2)c(OC)cc1N(C)CCN(C)C [MOBOCERTINIB]
IC50 [2]: 3.3 nM
Activity (BaF3): -98%
